Experimental data from patent US20230255934A1, “NURR1 RECEPTOR MODULATORS AND USES THEREOF” (The Regents of the University of California, priority 2020, published 2023).
“Also recorded” adds a separate entry of the source.

Legend:
[1] = molecular target: T1, Nurr1-LBD_Gal4-DBD chimeric protein (Homo sapiens, UniProt P43354); test: Nurr1-LBD_Gal4-DBD luciferase reporter assay in MN9D cells; assay type: cell-based; conditions: 6 h treatment
T1 construct: prepared by subcloning the Nurr1 LBD fragment into […] plasmid (Clontech) containing GAL4 DBD; expressed in transfected cells; host or cells: MN9D TET-ON cells
T1 sequence (P43354 360-595 limits assumed, change not shown): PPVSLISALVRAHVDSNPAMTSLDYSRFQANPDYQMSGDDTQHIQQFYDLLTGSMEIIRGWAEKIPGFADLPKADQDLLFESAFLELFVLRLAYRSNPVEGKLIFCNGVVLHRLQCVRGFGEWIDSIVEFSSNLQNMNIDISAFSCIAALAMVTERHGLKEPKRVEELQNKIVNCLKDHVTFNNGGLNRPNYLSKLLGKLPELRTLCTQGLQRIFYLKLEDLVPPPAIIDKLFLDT
Protocol: Luciferase Reporter Assays. These assays were executed using standard protocols. MN9D TET-ON cells (P5) were grown for 60-72 h (see above) before being seeded at 1-10^5 cell/well in 24-well plate in DMEM/F12+5% TET-ON approved FBS 3 h before transfection. Cells were transfected using Lipofectamine 2000 (Invitrogen) and plasmid DNAs according to manufacturer's instructions. Lipofectamine/DNA complexes were prepared in Opti-Mem medium (Gibco) and incubated with cells overnight. The Nurr1-LBD_Gal4-DBD expressing plasmid was prepared by subcloning the Nurr1 LBD fragment into […] plasmid (Clontech) containing GAL4 DBD. […] Transfected cells were treated with increasing concentrations of 5-chloroindole or vehicle only for 6 h, after which time the media was aspirated and luciferase activity was measured. […] Resulting solutions were transferred to a white opaque 96-well plate (65 μL/well; 3 wells/sample) and firefly luciferase activity was measured using Veritas Microplate Luminometer (Turner BioSystems, Sunnyvale, Calif.). […] Renilla luciferase activity was measured after 20 min of incubation of the plate inside the luminometer. Experimental values are expressed as the average of firefly/renilla luciferase activity±standard deviation (for three independent biological replicates). […]

RXRα LBD = molecular target: T2, RXRα LBD (Homo sapiens, UniProt P19793); test: MST binding to RXRα LBD (specificity control)
T2 construct: made in house
T2 sequence (P19793 with tags, fused parts or gaps): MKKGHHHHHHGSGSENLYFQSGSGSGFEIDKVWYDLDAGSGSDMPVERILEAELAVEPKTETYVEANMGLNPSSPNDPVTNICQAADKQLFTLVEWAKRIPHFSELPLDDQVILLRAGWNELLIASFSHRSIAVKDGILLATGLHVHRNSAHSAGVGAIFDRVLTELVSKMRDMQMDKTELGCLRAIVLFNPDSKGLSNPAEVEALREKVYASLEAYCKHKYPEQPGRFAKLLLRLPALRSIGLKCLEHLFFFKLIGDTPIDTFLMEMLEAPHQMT
From the text: The Nurr1 LBD protein, containing the N-terminal “LAP2” sequence that is recognized by a “coumarin ligase”, was expressed and purified using metal affinity and size-exclusion chromatography according to the previously reported protocol, except that the TEV cleavage step and reverse metal affinity chromatography were omitted.^1 The RXRα LBD protein, containing the N-terminal “LAP2” sequence, was expressed and purified identically to the Nurr1 LBD protein with minor modifications. Specifically, the elution of protein from Talon resin was performed by a step gradient of 10 CV each of 50 mM, 100 mM, 200 mM and 300 mM imidazole in 50 mM Tris-HCl buffer containing 300 mM NaCl at pH 7.8. Purity of protein in each fraction was analyzed by SDS PAGE and fractions eluted with 100-300 mM imidazole were pooled and concentrated. […]
Data were collected using the Monolith NT.115 System (Nanotemper), with settings for all samples at 40% excitation power and 40% MST power. The initial fluorescence was recorded for 3 sec and the thermophoresis fluorescence response was recorded for 20 sec. The data was inspected with Palmist software^5, and data points affected by initial fluorescence quenching or photobleaching were eliminated. The fluorescent response for each sample was normalized to the initial fluorescence using Palmist software to provide the values of thermophoresis (Fn). […]

[2] = Dynamic light scattering assay of nano-aggregation; assay type: physicochemical; conditions: MST buffer with Pluronic F127
Protocol: Measurements were made using a DynaPro MS/X (Wyatt Technology) with a 55 mW laser at 826.6 nm, using a detector angle of 90°. The laser power was 100%, and the acquisition time was 2 s. Histograms represent the average of three independent data sets, each with at least 10 measurements.

Clc1ccc2[nH]ccc2c1 [5-chloroindole]
Luciferase production, Nurr1-LBD_Gal4-DBD reporter [1]: stimulates production of luciferase; also recorded: stimulates the activity of Nurr1 | Binding to the RXRα LBD (in words) (RXRα LBD): does not exhibit saturable binding | Nano-aggregation properties [2]: minimal
